For 13 molecules, IC50 results are on record in patent publication US10633419B2, “Immunomodulators” (BRISTOL-MYERS SQUIBB COMPANY, priority 2014, dated 2020).

Positions of bridges follow the written chain, without caps; N, C: chain ends. Non-standard residues stand in square brackets, D forms with d. Residues, ends and D or L forms follow the SMILES beside them. *: point of attachment. X28 = O=C(O)CCCCCCCCCCNC(=O)CCC(=O)NCCCOCCOCCOCCCNC(=O)CCC(=O)NCCCOCCOCCOCCCN*; X15 = O=C(O)CCCCCCCCCCNC(=O)CCCCCCCCCCNC(=O)CCC(=O)NCCCOCCOCCOCCCN*; Trp(1-CH2COOH) = N[C@@H](Cc1cn(CC(=O)O)c2ccccc12)C(=O)O; X14 = O=C(O)CCCCCCCCCCNC(=O)CCC(=O)NCCCOCCOCCOCCCN*; Hyp = O=C(O)[C@@H]1C[C@@H](O)CN1; NMeNle = CCCC[C@H](NC)C(=O)O; AEEEA = NCCOCCOCCOCC(=O)O; NMeA = CN[C@@H](C)C(=O)O; Aun = NCCCCCCCCCCC(=O)O; Dab = NCC[C@H](N)C(=O)O; Dap = NC[C@H](N)C(=O)O

T1 sequence (Q9NZQ7 with tags, fused parts or gaps): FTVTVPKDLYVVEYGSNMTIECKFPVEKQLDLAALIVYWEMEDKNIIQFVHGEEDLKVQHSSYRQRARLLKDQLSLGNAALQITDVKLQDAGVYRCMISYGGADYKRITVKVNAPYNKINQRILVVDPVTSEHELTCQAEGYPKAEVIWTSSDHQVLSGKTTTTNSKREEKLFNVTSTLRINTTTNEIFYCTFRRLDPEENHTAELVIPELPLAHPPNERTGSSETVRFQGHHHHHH

The first assay addresses T1, PD-L1 (Homo sapiens, UniProt Q9NZQ7).
T1 construct: hPDL1(19-239)-TVMV-His; made in house; host or cells: HEK293T
The experiment in a line: PD-1/PD-L1 Homogenous Time-Resolved Fluorescence (HTRF) binding assay (PD-1-Ig/PD-L1-His). The settings on record: inhibition of PD-1-Ig binding to PD-L1-TVMV-His; value given as number; read-out: HTRF IC50. The procedure, abridged:
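Inhibitors pre-incubated 15 min with PD-L1-His (10 nM final), then PD-1-Ig (20 nM final) added for 15 min in dPBS/0.1% BSA/0.05% Tween-20. Eu-cryptate anti-Ig (1 nM) and APC anti-His (20 nM) added, 30 min equilibration, 665/620 nm HTRF ratio read.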
(In general: In TR-FRET formats the signal depends on donor and acceptor labels being close together.)
Usually IC50 stands for the concentration that gives 50% inhibition. Turning to `CCCC[C@H]1C(=O)N(C)[C@@H](CCCC)C(=O)N[C@@H](CC(C)C)C(=O)N[C@H](C(=O)NCCCOCCOCCOCCCNC(=O)CCC(=O)NCCCCCCCCCCC(=O)O)CSCC(=O)N[C@@H](Cc2ccc(O)cc2)C(=O)N(C)[C@@H](C)C(=O)N[C@@H](CC(N)=O)C(=O)N2CCC[C@H]2C(=O)N[C@@H](CN)C(=O)N[C@@H](CCC(N)=O)C(=O)N2C[C@H](O)C[C@H]2C(=O)N[C@@H](Cc2c[nH]c3ccccc23)C(=O)N[C@@H](CO)C(=O)N[C@@H](Cc2cn(CC(=O)O)c3ccccc23)C(=O)N1C` [Example 11086] ({CH2CO}-Y[NMeA]NP[Dap]Q[Hyp]WS[Trp(1-CH2COOH)][NMeNle][NMeNle]LC-X14; thioether N-14), the IC50 is 19 nM. The same measure, in the same setting: for `CCCC[C@H]1C(=O)N(C)[C@@H](CCCC)C(=O)N[C@@H](CC(C)C)C(=O)N[C@H](C(=O)NCC(=O)NCC(=O)NCC(=O)NCCCCCCCCCCC(=O)O)CSCC(=O)N[C@@H](Cc2ccc(O)cc2)C(=O)N(C)[C@@H](C)C(=O)N[C@@H](CCC(=O)O)C(=O)N2CCC[C@H]2C(=O)N[C@@H](Cc2cnc[nH]2)C(=O)N[C@@H](CCCCN)C(=O)N2C[C@H](O)C[C@H]2C(=O)N[C@@H](Cc2c[nH]c3ccccc23)C(=O)N[C@@H](CCCCN)C(=O)N[C@@H](Cc2cn(CC(=O)O)c3ccccc23)C(=O)N1C` [Example 11092] ({CH2CO}-Y[NMeA]EPHK[Hyp]WK[Trp(1-CH2COOH)][NMeNle][NMeNle]LCGGG[Aun]-OH; thioether N-14) the value was 13.5 nM. Still for that read-out and setting: for `CCCC[C@H]1C(=O)N(C)[C@@H](CCCC)C(=O)N[C@@H](CC(C)C)C(=O)N[C@H](C(=O)NCC(=O)NCC(=O)NCC(=O)NCCCCCCCCCCC(=O)O)CSCC(=O)N[C@@H](Cc2ccc(O)cc2)C(=O)N(C)[C@@H](C)C(=O)N[C@@H](CC(N)=O)C(=O)N2CCC[C@H]2C(=O)N[C@@H](CN)C(=O)N[C@@H](CCC(N)=O)C(=O)N2C[C@H](O)C[C@H]2C(=O)N[C@@H](Cc2c[nH]c3ccccc23)C(=O)N[C@@H](CCN)C(=O)N[C@@H](Cc2cn(CC(=O)O)c3ccccc23)C(=O)N1C` [Example 11094] ({CH2CO}-Y[NMeA]NP[Dap]Q[Hyp]W[Dab][Trp(1-CH2COOH)][NMeNle][NMeNle]LCGGG[Aun]-OH; thioether N-14) the value was 18.8 nM.

The same assay, now with this note: inhibition of PD-1-Ig binding to PD-L1-TVMV-His; value given as range class; read-out: HTRF IC50.
With `CCCC[C@H]1C(=O)N(C)[C@@H](CCCC)C(=O)N[C@@H](CC(C)C)C(=O)N[C@H](C(=O)NCC(=O)NCCCCCCCCCCC(=O)O)CSCC(=O)N[C@@H](Cc2ccc(O)cc2)C(=O)N(C)[C@@H](C)C(=O)N[C@@H](CC(N)=O)C(=O)N2CCC[C@H]2C(=O)N[C@@H](CO)C(=O)N[C@@H](CCC(N)=O)C(=O)N2C[C@H](O)C[C@H]2C(=O)N[C@@H](Cc2c[nH]c3ccccc23)C(=O)N[C@@H](CO)C(=O)N[C@@H](Cc2cn(CC(=O)O)c3ccccc23)C(=O)N1C` [Example 11084] ({CH2CO}-Y[NMeA]NPSQ[Hyp]WS[Trp(1-CH2COOH)][NMeNle][NMeNle]LCG[Aun]-OH; thioether N-14), the IC50 lay within 10 to 99 nM.

On to `CCCC[C@H]1C(=O)N(C)[C@@H](CCCC)C(=O)N[C@@H](CC(C)C)C(=O)N[C@H](C(=O)NCCOCCOCCOCC(=O)NCCCCCCCCCCC(=O)O)CSCC(=O)N[C@@H](Cc2ccc(O)cc2)C(=O)N(C)[C@@H](C)C(=O)N[C@@H](CC(N)=O)C(=O)N2CCC[C@H]2C(=O)N[C@@H](CO)C(=O)N[C@@H](CCC(N)=O)C(=O)N2C[C@H](O)C[C@H]2C(=O)N[C@@H](Cc2c[nH]c3ccccc23)C(=O)N[C@@H](CO)C(=O)N[C@@H](Cc2cn(CC(=O)O)c3ccccc23)C(=O)N1C` [Example 11085] ({CH2CO}-Y[NMeA]NPSQ[Hyp]WS[Trp(1-CH2COOH)][NMeNle][NMeNle]LC[AEEEA][Aun]-OH; thioether N-14), for which the IC50 was 10 to 99 nM. For `CCCC[C@H]1C(=O)N(C)[C@@H](CCCC)C(=O)N[C@@H](CC(C)C)C(=O)N[C@H](C(=O)NCCCOCCOCCOCCCNC(=O)CCC(=O)NCCCCCCCCCCC(=O)NCCCCCCCCCCC(=O)O)CSCC(=O)N[C@@H](Cc2ccc(O)cc2)C(=O)N(C)[C@@H](C)C(=O)N[C@@H](CC(N)=O)C(=O)N2CCC[C@H]2C(=O)N[C@@H](CN)C(=O)N[C@@H](CCC(N)=O)C(=O)N2C[C@H](O)C[C@H]2C(=O)N[C@@H](Cc2c[nH]c3ccccc23)C(=O)N[C@@H](CO)C(=O)N[C@@H](Cc2cn(CC(=O)O)c3ccccc23)C(=O)N1C` [Example 11087] ({CH2CO}-Y[NMeA]NP[Dap]Q[Hyp]WS[Trp(1-CH2COOH)][NMeNle][NMeNle]LC-X15; thioether N-14), the IC50 was 10 to 99 nM. As to `CCCC[C@H]1C(=O)N(C)[C@@H](CCCC)C(=O)N[C@@H](CC(C)C)C(=O)N[C@H](C(=O)NCCCOCCOCCOCCCNC(=O)CCC(=O)NCCCOCCOCCOCCCNC(=O)CCC(=O)NCCCCCCCCCCC(=O)O)CSCC(=O)N[C@@H](Cc2ccc(O)cc2)C(=O)N(C)[C@@H](C)C(=O)N[C@@H](CC(N)=O)C(=O)N2CCC[C@H]2C(=O)N[C@@H](CN)C(=O)N[C@@H](CCC(N)=O)C(=O)N2C[C@H](O)C[C@H]2C(=O)N[C@@H](Cc2c[nH]c3ccccc23)C(=O)N[C@@H](CO)C(=O)N[C@@H](Cc2cn(CC(=O)O)c3ccccc23)C(=O)N1C` [Example 11088] ({CH2CO}-Y[NMeA]NP[Dap]Q[Hyp]WS[Trp(1-CH2COOH)][NMeNle][NMeNle]LC-X28; thioether N-14), the IC50 lay within 100 to 1600 nM. In the case of `CCCC[C@H]1C(=O)N(C)[C@@H](CCCC)C(=O)N[C@@H](CC(C)C)C(=O)N[C@H](C(=O)NCCCCCCCCCCC(=O)NCCCCCCCCCCC(=O)O)CSCC(=O)N[C@@H](Cc2ccc(O)cc2)C(=O)N(C)[C@@H](C)C(=O)N[C@@H](CC(N)=O)C(=O)N2CCC[C@H]2C(=O)N[C@@H](CN)C(=O)N[C@@H](CCC(N)=O)C(=O)N2C[C@H](O)C[C@H]2C(=O)N[C@@H](Cc2c[nH]c3ccccc23)C(=O)N[C@@H](CO)C(=O)N[C@@H](Cc2cn(CC(=O)O)c3ccccc23)C(=O)N1C` [Example 11089] ({CH2CO}-Y[NMeA]NP[Dap]Q[Hyp]WS[Trp(1-CH2COOH)][NMeNle][NMeNle]LC[Aun][Aun]-OH; thioether N-14), the IC50 was in the range of 10 to 99 nM. Same read-out and setting: for `CCCC[C@H]1C(=O)N(C)[C@@H](CCCC)C(=O)N[C@@H](CC(C)C)C(=O)N[C@H](C(=O)NCCCCCCCCCCC(=O)NCCCCCCCCCCC(=O)NCCCCCCCCCCC(=O)O)CSCC(=O)N[C@@H](Cc2ccc(O)cc2)C(=O)N(C)[C@@H](C)C(=O)N[C@@H](CC(N)=O)C(=O)N2CCC[C@H]2C(=O)N[C@@H](CN)C(=O)N[C@@H](CCC(N)=O)C(=O)N2C[C@H](O)C[C@H]2C(=O)N[C@@H](Cc2c[nH]c3ccccc23)C(=O)N[C@@H](CO)C(=O)N[C@@H](Cc2cn(CC(=O)O)c3ccccc23)C(=O)N1C` [Example 11090] ({CH2CO}-Y[NMeA]NP[Dap]Q[Hyp]WS[Trp(1-CH2COOH)][NMeNle][NMeNle]LC[Aun][Aun][Aun]-OH; thioether N-14) the value was 10 to 99 nM; for `CCCC[C@H]1C(=O)N(C)[C@@H](CCCC)C(=O)N[C@@H](CC(C)C)C(=O)N[C@H](C(=O)NCC(=O)NCC(=O)NCC(=O)NCCCCCCCCCCC(=O)O)CSCC(=O)N[C@@H](Cc2ccc(O)cc2)C(=O)N(C)[C@@H](C)C(=O)N[C@@H](CC(N)=O)C(=O)N2CCC[C@H]2C(=O)N[C@@H](CN)C(=O)N[C@@H](CC(C)C)C(=O)N2C[C@H](O)C[C@H]2C(=O)N[C@@H](Cc2c[nH]c3ccccc23)C(=O)N[C@@H](CCN)C(=O)N[C@@H](Cc2cn(CC(=O)O)c3ccccc23)C(=O)N1C` [Example 11091] ({CH2CO}-Y[NMeA]NP[Dap]L[Hyp]W[Dab][Trp(1-CH2COOH)][NMeNle][NMeNle]LCGGG[Aun]-OH; thioether N-14), 0.3 to 9.9 nM.

Consider `CCCC[C@H]1C(=O)N(C)[C@@H](CCCC)C(=O)N[C@@H](CC(C)C)C(=O)N[C@H](C(=O)NCC(=O)NCC(=O)NCC(=O)NCCCCCCCCCCC(=O)O)CSCC(=O)N[C@@H](Cc2ccc(O)cc2)C(=O)N(C)[C@@H](C)C(=O)N[C@@H](CC(N)=O)C(=O)N2CCC[C@H]2C(=O)N[C@@H](CN)C(=O)N[C@@H](CCC(=O)O)C(=O)N2C[C@H](O)C[C@H]2C(=O)N[C@@H](Cc2c[nH]c3ccccc23)C(=O)N[C@@H](CCN)C(=O)N[C@@H](Cc2cn(CC(=O)O)c3ccccc23)C(=O)N1C` [Example 11093] ({CH2CO}-Y[NMeA]NP[Dap]E[Hyp]W[Dab][Trp(1-CH2COOH)][NMeNle][NMeNle]LCGGG[Aun]-OH; thioether N-14), for which the IC50 was 10 to 99 nM. Same read-out and setting: the value for `CCCC[C@H]1C(=O)N(C)[C@@H](CCCC)C(=O)N[C@@H](CC(C)C)C(=O)N[C@H](C(=O)NCC(=O)NCC(=O)NCC(=O)NCCCCCCCCCCC(=O)O)CSCC(=O)N[C@@H](Cc2ccc(O)cc2)C(=O)N(C)[C@@H](C)C(=O)N[C@@H](CC(=O)O)C(=O)N2CCC[C@H]2C(=O)N[C@@H](CN)C(=O)N[C@@H](CCC(N)=O)C(=O)N2C[C@H](O)C[C@H]2C(=O)N[C@@H](Cc2c[nH]c3ccccc23)C(=O)N[C@@H](CCN)C(=O)N[C@@H](Cc2cn(CC(=O)O)c3ccccc23)C(=O)N1C` [Example 11095] ({CH2CO}-Y[NMeA]DP[Dap]Q[Hyp]W[Dab][Trp(1-CH2COOH)][NMeNle][NMeNle]LCGGG[Aun]-OH; thioether N-14) was 0.3 to 9.9 nM; that for `CCCC[C@H]1C(=O)N(C)[C@@H](CCCC)C(=O)N[C@@H](CC(C)C)C(=O)N[C@H](C(=O)NCC(=O)NCC(=O)NCC(=O)NCCCCCCCCCCC(=O)O)CSCC(=O)N[C@@H](Cc2ccc(O)cc2)C(=O)N(C)[C@@H](C)C(=O)N[C@@H](CC(=O)O)C(=O)N2CCC[C@H]2C(=O)N[C@@H](CN)C(=O)N[C@@H](CC(C)C)C(=O)N2C[C@H](O)C[C@H]2C(=O)N[C@@H](Cc2c[nH]c3ccccc23)C(=O)N[C@@H](CCN)C(=O)N[C@@H](Cc2cn(CC(=O)O)c3ccccc23)C(=O)N1C` [Example 11096] ({CH2CO}-Y[NMeA]DP[Dap]L[Hyp]W[Dab][Trp(1-CH2COOH)][NMeNle][NMeNle]LCGGG[Aun]-OH; thioether N-14) was 10 to 99 nM.
